According to patent publication US11459319B2, “Cytochrome P450 inhibitors and uses thereof” (ANGION BIOMEDICA CORP., priority 2014, dated 2022):

T1: human recombinant enzyme (CYP26) (Homo sapiens, UniProt O43174)
T1 sequence (O43174 1-497): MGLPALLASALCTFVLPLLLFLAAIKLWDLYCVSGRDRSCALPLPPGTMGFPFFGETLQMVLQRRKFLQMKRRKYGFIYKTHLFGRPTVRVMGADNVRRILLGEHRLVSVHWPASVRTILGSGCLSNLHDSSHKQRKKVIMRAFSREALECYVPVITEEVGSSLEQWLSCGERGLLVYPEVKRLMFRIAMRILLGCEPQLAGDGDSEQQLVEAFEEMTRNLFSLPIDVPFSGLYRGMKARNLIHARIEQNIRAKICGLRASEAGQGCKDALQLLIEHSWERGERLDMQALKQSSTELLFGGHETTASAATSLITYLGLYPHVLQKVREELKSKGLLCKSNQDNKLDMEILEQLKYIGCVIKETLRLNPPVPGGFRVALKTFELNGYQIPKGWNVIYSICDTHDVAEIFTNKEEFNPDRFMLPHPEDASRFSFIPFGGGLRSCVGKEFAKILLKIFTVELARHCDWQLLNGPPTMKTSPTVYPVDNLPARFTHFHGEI

T2: CYP26 (Mus musculus, UniProt O55127)
T2 construct: substrate depletion assay for ATRA metabolism in mouse microsomes; tissue Xenotech; host or cells: liver microsomes of mice treated with ATRA for four days
T2 sequence (O55127 1-497): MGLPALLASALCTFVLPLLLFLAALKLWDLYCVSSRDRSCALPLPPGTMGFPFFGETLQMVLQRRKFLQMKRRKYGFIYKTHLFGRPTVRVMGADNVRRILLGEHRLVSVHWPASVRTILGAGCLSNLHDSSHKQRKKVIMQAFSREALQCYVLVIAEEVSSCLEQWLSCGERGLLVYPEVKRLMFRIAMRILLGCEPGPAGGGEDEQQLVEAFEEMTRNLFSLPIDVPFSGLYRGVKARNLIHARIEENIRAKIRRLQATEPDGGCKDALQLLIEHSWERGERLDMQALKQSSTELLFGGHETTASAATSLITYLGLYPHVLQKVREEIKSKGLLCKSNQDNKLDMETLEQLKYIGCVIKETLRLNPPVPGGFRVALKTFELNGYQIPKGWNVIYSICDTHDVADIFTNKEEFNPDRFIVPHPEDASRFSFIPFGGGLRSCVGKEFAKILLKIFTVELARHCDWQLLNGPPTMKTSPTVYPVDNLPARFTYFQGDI

B1: CYP26 (Mus musculus) (protein)
chain: T2 sequence (O55127 1-497)

target: T1, human recombinant enzyme (CYP26); assay: not given; conditions: read-out: Km reported for the human recombinant enzyme; cited from earlier work

Molecule	Km
CC1=C(/C=C/C(C)=C/C=C/C(C)=C/C(=O)O)C(C)(C)CCC1 [ATRA, all-trans retinoic acid]	~10 nM

target: T2, CYP26; assay: CYP26 inhibition: substrate depletion assay for ATRA metabolism in induced mouse liver microsomes; format: biochemical; conditions: not given

Molecule	IC50
CCC(CC)C(c1ccc2nc(OCC(C)(C)C(=O)O)sc2c1)n1cncn1 (stereo not shown) [Example-1, 3-((6-(2-Ethyl-1-(1H-1,2,4-triazol-1-yl)butyl)benzo[d]thiazol-2-yl)oxy)-2,2-dimethylpropanoic Acid]	< 1000 nM
CCC(CC)C(c1ccc2nc(OCC(C)(C)C(=O)O)sc2c1)n1cnnc1 (stereo not shown) [Example-2, 3-((6-(2-Ethyl-1-(4H-1,2,4-triazol-4-yl)butyl)benzo[d]thiazol-2-yl)oxy)-2,2-dimethylpropanoic Acid]	< 1000 nM
CCC(CC)C(c1ccc2nc(OCC3(C(=O)O)CCCC3)sc2c1)n1cncn1 (stereo not shown) [Example-3, 1-(((6-(2-Ethyl-1-(1H-1,2,4-triazol-1-yl)butyl)benzo[d]thiazol-2-yl)oxy)methyl)cyclopentanecarboxylic Acid]	< 1000 nM
CCC(CC)C(c1ccc2nc(OCC3(C(=O)O)CCCC3)sc2c1)n1cnnc1 (stereo not shown) [Example-4, 1-(((6-(2-Ethyl-1-(4H-1,2,4-triazol-4-yl)butyl)benzo[d]thiazol-2-yl)oxy)methyl)cyclopentanecarboxylic Acid]	< 1000 nM
CCC(CC)C(c1ccc2nc(OCC3(C(=O)O)CCCCC3)sc2c1)n1cncn1 (stereo not shown) [Example-5, 1-(((6-(2-ethyl-1-(1H-1,2,4-triazol-1-yl)butyl)benzo[d]thiazol-2-yl)oxy)methyl)cyclohexanecarboxylic Acid]	< 1000 nM
CCC(CC)C(c1ccc2nc(OCC3(C(=O)O)CCCCC3)sc2c1)n1cnnc1 (stereo not shown) [Example-6, 1-(((6-(2-Ethyl-1-(4H-1,2,4-triazol-4-yl)butyl)benzo[d]thiazol-2-yl)oxy)methyl)cyclohexanecarboxylic Acid]	< 1000 nM
CCC(CC)C(c1ccc2nc(-c3ccc(C(=O)O)cc3)sc2c1)n1cncn1 (stereo not shown) [Example-7, 4-(6-(2-ethyl-1-(1H-1,2,4-triazol-1-yl)butyl)benzo[d]thiazol-2-yl)benzoic Acid]	< 1000 nM
CCC(CC)C(c1ccc2nc(-c3ccc(C(=O)O)cc3)sc2c1)n1cnnc1 (stereo not shown) [Example-8, 4-(6-(2-ethyl-1-(4H-1,2,4-triazol-4-yl)butyl)benzo[d]thiazol-2-yl)benzoic Acid]	< 1000 nM

substrate: CC1=C(/C=C/C(C)=C/C=C/C(C)=C/C(=O)O)C(C)(C)CCC1; assay: cells, lysate or membranes named; conditions: other: induced mouse microsomes, Michaelis-Menten kinetics; pH 7.4

Molecule	Km
B1	4 nM
